Measurements published in ChEMBL document CHEMBL5131387, “Discovery and computational studies of 2-phenyl-benzoxazole acetamide derivatives as promising P2Y14R antagonists with anti-gout potential” (Eur J Med Chem, 2022).
pIC50: −log10 of the molar value. Calls of active or inactive are those of the source. No cut-off for these calls is given here.

Biological target: T1, P2Y purinoceptor 14 (Homo sapiens) (UniProt Q15391)
T1 sequence (whole entry): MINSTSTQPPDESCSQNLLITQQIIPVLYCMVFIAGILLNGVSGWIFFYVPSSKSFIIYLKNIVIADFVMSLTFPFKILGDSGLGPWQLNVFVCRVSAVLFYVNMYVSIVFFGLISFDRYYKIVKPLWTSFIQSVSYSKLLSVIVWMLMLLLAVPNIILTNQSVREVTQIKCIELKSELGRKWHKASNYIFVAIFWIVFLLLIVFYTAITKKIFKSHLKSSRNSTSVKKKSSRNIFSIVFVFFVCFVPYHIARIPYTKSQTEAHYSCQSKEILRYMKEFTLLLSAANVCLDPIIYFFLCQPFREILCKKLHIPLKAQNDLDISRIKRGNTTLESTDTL
Test: Antagonist activity at human P2Y14R expressed in human HEK293 cells assessed as inhibition of cAMP level at 100 nM incubated for 30 mins by cAMP-glo assay relative to control
Type: functional, cell-based
Settings: filed as antagonist

Structure (SMILES)	inhibition [%]
O=C(Cc1cccc(Br)c1)Nc1cccc(-c2nc3ccccc3o2)c1	70.5
O=C(Cc1ccccc1Br)Nc1cccc(-c2nc3ccccc3o2)c1	68.6
O=C(Cc1cccc(C(F)(F)F)c1)Nc1cccc(-c2nc3cc(Cl)ccc3o2)c1	79.7
Cc1ccc2oc(-c3cccc(NC(=O)Cc4cccc(C(F)(F)F)c4)c3)nc2c1	62.2
O=C(Cc1ccc2c(c1)OCO2)Nc1cccc(-c2nc3ccccc3o2)c1	63.3
O=C(Cc1ccc(Cl)cc1)Nc1ccc(-c2cc3ccccc3o2)cc1	51
COc1cccc(CC(=O)Nc2cccc(-c3nc4ccccc4o3)c2)c1	83
COc1ccc(CC(=O)Nc2cccc(-c3nc4ccccc4o3)c2)cc1	98
CCCCOc1ccc(CC(=O)Nc2ccc(-c3cc4ccccc4o3)cc2)cc1	61
COc1ccccc1CC(=O)Nc1cccc(-c2nc3cc(Cl)ccc3o2)c1	81
Cc1ccc2oc(-c3cccc(NC(=O)Cc4ccc(C(F)(F)F)cc4)c3)nc2c1	71.3
COc1ccccc1CC(=O)Nc1cccc(-c2nc3ccccc3o2)c1	83
COc1ccc(CC(=O)Nc2ccc(-c3cc4ccccc4o3)cc2)cc1	75
CCCCOc1ccc(CC(=O)Nc2cccc(-c3nc4cc(Cl)ccc4o3)c2)cc1	68
O=C(Cc1ccc(Br)cc1)Nc1ccc(-c2cc3ccccc3o2)cc1	47
O=C(Cc1ccccc1Cl)Nc1cccc(-c2nc3cc(Cl)ccc3o2)c1	68.6
COc1cccc(CC(=O)Nc2cccc(-c3nc4cc(Cl)ccc4o3)c2)c1	82
O=C(Cc1cccc(Cl)c1)Nc1cccc(-c2nc3cc(Cl)ccc3o2)c1	74.6
CCCCOc1ccc(CC(=O)Nc2cccc(-c3nc4ccccc4o3)c2)cc1	86
O=C(Cc1ccccc1Cl)Nc1cccc(-c2nc3ccccc3o2)c1	67.2
O=C(Cc1ccc(C(F)(F)F)cc1)Nc1cccc(-c2nc3ccccc3o2)c1	83.6
O=C(Cc1cccc(OC(F)(F)F)c1)Nc1cccc(-c2nc3ccccc3o2)c1	80
O=C(Cc1ccc(OC(F)(F)F)cc1)Nc1cccc(-c2nc3cc(Cl)ccc3o2)c1	88

Species on record: Mus musculus
Test: Anti-arthritis activity against MSU-induced acute gout arthritis ICR mouse model assessed as reduction in paw swelling at 10 uM measured at 6 to 24 hrs
Type: functional, organism-based
Settings: not given

Structure (SMILES)	Activity
COc1ccc(CC(=O)Nc2cccc(-c3nc4ccccc4o3)c2)cc1	Active
O=C(O)c1cc(-c2ccc(C3CCNCC3)cc2)c2ccc(-c3ccc(C(F)(F)F)cc3)cc2c1 [PPTN]	Active

Biological target: T2, P2Y purinoceptor 14 (Homo sapiens, UniProt Q15391)
T2 sequence (Q15391 whole entry): T1 sequence (whole entry)
Test: Antagonist activity at human P2Y14R expressed in human HEK293 cells assessed as inhibition of cAMP level incubated for 30 mins by cAMP-glo assay
Type: functional, cell-based
Settings: not given

Structure (SMILES)	pIC50
O=C(Cc1cccc(Br)c1)Nc1cccc(-c2nc3ccccc3o2)c1	7.60
O=C(Cc1cccc(C(F)(F)F)c1)Nc1cccc(-c2nc3cc(Cl)ccc3o2)c1	7.56
COc1cccc(CC(=O)Nc2cccc(-c3nc4ccccc4o3)c2)c1	7.61
COc1ccc(CC(=O)Nc2cccc(-c3nc4ccccc4o3)c2)cc1	8.70
COc1ccccc1CC(=O)Nc1cccc(-c2nc3cc(Cl)ccc3o2)c1	7.77
Cc1ccc2oc(-c3cccc(NC(=O)Cc4ccc(C(F)(F)F)cc4)c3)nc2c1	7.45
COc1ccccc1CC(=O)Nc1cccc(-c2nc3ccccc3o2)c1	7.91
COc1cccc(CC(=O)Nc2cccc(-c3nc4cc(Cl)ccc4o3)c2)c1	7.62
O=C(Cc1cccc(Cl)c1)Nc1cccc(-c2nc3cc(Cl)ccc3o2)c1	7.87
CCCCOc1ccc(CC(=O)Nc2cccc(-c3nc4ccccc4o3)c2)cc1	7.91
O=C(Cc1ccc(C(F)(F)F)cc1)Nc1cccc(-c2nc3ccccc3o2)c1	7.94
O=C(Cc1cccc(OC(F)(F)F)c1)Nc1cccc(-c2nc3ccccc3o2)c1	7.79
O=C(Cc1ccc(OC(F)(F)F)cc1)Nc1cccc(-c2nc3cc(Cl)ccc3o2)c1	8.01

Tested on: BMDM
Test: Antiinflammatory activity against MSU-induced C57BL/6 mouse BMDM cells assessed as inhibition of secretion of IL-1beta protein expression in supernatant at 10 uM measured after 7 days by western blot analysis
Type: functional, cell-based
Settings: not given

Structure (SMILES)	Activity
COc1ccc(CC(=O)Nc2cccc(-c3nc4ccccc4o3)c2)cc1	Active
O=C(O)c1cc(-c2ccc(C3CCNCC3)cc2)c2ccc(-c3ccc(C(F)(F)F)cc3)cc2c1 [PPTN]	Active

Tested on: BMDM
Test: Antiinflammatory activity against MSU-induced C57BL/6 mouse BMDM cells assessed as inhibition of MSU-induced NLRP3 upregulation at 10 uM measured after 7 days by western blot analysis
Type: functional, cell-based
Settings: not given

Structure (SMILES)	Activity
COc1ccc(CC(=O)Nc2cccc(-c3nc4ccccc4o3)c2)cc1	Active
O=C(O)c1cc(-c2ccc(C3CCNCC3)cc2)c2ccc(-c3ccc(C(F)(F)F)cc3)cc2c1 [PPTN]	Active

Tested on: BMDM
Test: Antiinflammatory activity against MSU-induced C57BL/6 mouse BMDM cells assessed as inhibition of MSU-induced ASC upregulation at 10 uM measured after 7 days by western blot analysis
Type: functional, cell-based
Settings: not given

Structure (SMILES)	Activity
COc1ccc(CC(=O)Nc2cccc(-c3nc4ccccc4o3)c2)cc1	Active
O=C(O)c1cc(-c2ccc(C3CCNCC3)cc2)c2ccc(-c3ccc(C(F)(F)F)cc3)cc2c1 [PPTN]	Active

Tested on: BMDM
Test: Antiinflammatory activity against MSU-induced C57BL/6 mouse BMDM cells assessed as inhibition of MSU-induced caspase-1 upregulation at 10 uM measured after 7 days by western blot analysis
Type: functional, cell-based
Settings: not given

Structure (SMILES)	Activity
COc1ccc(CC(=O)Nc2cccc(-c3nc4ccccc4o3)c2)cc1	Active
O=C(O)c1cc(-c2ccc(C3CCNCC3)cc2)c2ccc(-c3ccc(C(F)(F)F)cc3)cc2c1 [PPTN]	Active

Tested on: BMDM
Test: Antiinflammatory activity against MSU-induced C57BL/6 mouse BMDM cells assessed as inhibition of MSU-induced GSDMD-NT upregulation at 10 uM measured after 7 days by western blot analysis
Type: functional, cell-based
Settings: not given

Structure (SMILES)	Activity
COc1ccc(CC(=O)Nc2cccc(-c3nc4ccccc4o3)c2)cc1	Active
O=C(O)c1cc(-c2ccc(C3CCNCC3)cc2)c2ccc(-c3ccc(C(F)(F)F)cc3)cc2c1 [PPTN]	Active

Tested on: BMDM
Test: Antiinflammatory activity against MSU-induced C57BL/6 mouse BMDM cells assessed as inhibition of MSU-induced ASC upregulation at 10 uM by measuring fluorescence intensity by immunofluorescence assay
Type: functional, cell-based
Settings: not given

Structure (SMILES)	Activity
COc1ccc(CC(=O)Nc2cccc(-c3nc4ccccc4o3)c2)cc1	Active
O=C(O)c1cc(-c2ccc(C3CCNCC3)cc2)c2ccc(-c3ccc(C(F)(F)F)cc3)cc2c1 [PPTN]	Active

Tested on: BMDM
Test: Antiinflammatory activity against MSU-induced C57BL/6 mouse BMDM cells assessed as inhibition of MSU-induced NLRP3 upregulation at 10 uM by measuring fluorescence intensity by immunofluorescence assay
Type: functional, cell-based
Settings: not given

Structure (SMILES)	Activity
COc1ccc(CC(=O)Nc2cccc(-c3nc4ccccc4o3)c2)cc1	Active
O=C(O)c1cc(-c2ccc(C3CCNCC3)cc2)c2ccc(-c3ccc(C(F)(F)F)cc3)cc2c1 [PPTN]	Active

Species on record: Mus musculus
Test: Anti-arthritis activity against MSU-induced acute gout arthritis ICR mouse model assessed as inhibition of NLRP3 inflammasome activation in foot tissue at 10 uM by microscopic analysis
Type: functional, organism-based
Settings: not given

Structure (SMILES)	Activity
COc1ccc(CC(=O)Nc2cccc(-c3nc4ccccc4o3)c2)cc1	Active
O=C(O)c1cc(-c2ccc(C3CCNCC3)cc2)c2ccc(-c3ccc(C(F)(F)F)cc3)cc2c1 [PPTN]	Active

Species on record: Mus musculus
Test: Anti-arthritis activity against MSU-induced acute gout arthritis ICR mouse model assessed as reversal of GSDMD-NT upregulation in foot tissue at 10 uM by western blot analysis
Type: functional, organism-based
Settings: not given

Structure (SMILES)	Activity
COc1ccc(CC(=O)Nc2cccc(-c3nc4ccccc4o3)c2)cc1	Active
O=C(O)c1cc(-c2ccc(C3CCNCC3)cc2)c2ccc(-c3ccc(C(F)(F)F)cc3)cc2c1 [PPTN]	Active

Tested on: Mus musculus
Test: (§1) Anti-inflammatory activity against air pouch inflammation ICR mouse model assessed as decrease in MSU-induced pyroptosis of air pouch macrophages by measuring viable cells at 10 uM injected subcutaneously after 24 hrs of MSU stimulation and measured after 24 hrs by caspase-1/PI staining based flow cytometry (reference value: 45.5 %)
Type: functional
Settings: route sc

Structure (SMILES)	Activity [%]
COc1ccc(CC(=O)Nc2cccc(-c3nc4ccccc4o3)c2)cc1	68.5
O=C(O)c1cc(-c2ccc(C3CCNCC3)cc2)c2ccc(-c3ccc(C(F)(F)F)cc3)cc2c1 [PPTN]	60

Tested on: Mus musculus
Test: as §1, with “early” for “viable”, “13.6” for “45.5”
Type: functional
Set-up: scale not given: the % may be the effect or the level left
Settings: route sc

Structure (SMILES)	Activity [%]
COc1ccc(CC(=O)Nc2cccc(-c3nc4ccccc4o3)c2)cc1	8.73
O=C(O)c1cc(-c2ccc(C3CCNCC3)cc2)c2ccc(-c3ccc(C(F)(F)F)cc3)cc2c1 [PPTN]	15.4

Tested on: Mus musculus
Test: as §1, with “late” for “viable”, “(Rvb =14.7” for “(reference value: 45.5”
Type: functional
Set-up: scale not given: the % may be the effect or the level left
Settings: route sc

Structure (SMILES)	Activity [%]
COc1ccc(CC(=O)Nc2cccc(-c3nc4ccccc4o3)c2)cc1	7.81
O=C(O)c1cc(-c2ccc(C3CCNCC3)cc2)c2ccc(-c3ccc(C(F)(F)F)cc3)cc2c1 [PPTN]	6.81

Tested on: Mus musculus
Test: as §1, with “necrotic” for “viable”, “(Rvb =26.2” for “(reference value: 45.5”
Type: functional
Set-up: scale not given: the % may be the effect or the level left
Settings: route sc

Structure (SMILES)	Activity [%]
COc1ccc(CC(=O)Nc2cccc(-c3nc4ccccc4o3)c2)cc1	15
O=C(O)c1cc(-c2ccc(C3CCNCC3)cc2)c2ccc(-c3ccc(C(F)(F)F)cc3)cc2c1 [PPTN]	18.8
